Consider 5 compounds from patent US20190298721A1, “STABLE PRO-VITAMIN DERIVATIVE COMPOUNDS, PHARMACEUTICAL AND DIETARY COMPOSITIONS, AND METHODS OF THEIR USE” (CORNELL UNIVERSITY, priority 2016, published 2019).

Data set [1] is described as follows: Chemical stability of folates incubated in Defined αMEM at 65° C., read out by L. casei assay. In kind it is physicochemical. The following applies: for Chemical stability (support of growth in the microbiological assay): after 24 hours incubation at 65° C., pH 7.2 (FIG. 8); for Chemical stability relative to 5-methyltetrahydrofolate: 65° C., pH 7.2, Defined αMEM (FIG. 8). As to the method:
Folic acid and various reduced folates were incubated in Defined αMEM (described above) in sterile Eppendorf tubes at 65° C. and sampled at 0, 0.5, 1, 2, 4, 8, and 24 hours. The sampled aliquots were immediately mixed with L. casei extraction buffer containing sodium ascorbate to protect folates from oxidative degradation and frozen at −80° C. The L. casei assay was performed as previously described (Suh et al., “Purification and Properties of a Folate-Catabolizing Enzyme,” J Biol. Chem. 275(45):35646-35655 (2000), which is hereby incorporated by reference in its entirety).

Data set [2] deals with HeLa cells. In words: Cell proliferation of HeLa cells in Defined αMEM supplemented with folate forms (bright field image analysis). In kind it is cell-based. The conditions noted are these: range of concentrations, approximately three doublings, compared with Leucovorin and folic acid (FIGS. 6A, 6C). As to the method: (§1) HeLa cells and immortalized mouse fibroblasts (CHIP) cells were plated in 96-well plates, 1000 cells per well. Total cell number was monitored over time using bright field image analysis on a Celigo cytometer (Nexcelom, Inc.) according to manufacturers' protocols. Data was represented as average±standard deviation for 10 biological replicates per condition. Cells were cultured in Defined αMEM culture media (lacking folate, serine, glycine, methionine, nucleosides/nucleotides, and pyridoxine) which was supplemented with 200 μM methionine, 0.5 g/L pyridoxine, and varying concentrations of folic acid, (6S)-Leucovorin or novel folate derivative. Before plating for proliferation assays, HeLa cells and CHIP cells were cultured for three doublings in Defined αMEM lacking folate to deplete intracellular folates.

Data set [3] relates to immortalized mouse fibroblasts (CHIP) cells. In words: Cell proliferation of immortalized mouse fibroblasts (CHIP) in Defined αMEM supplemented with folate forms (bright field image analysis). The conditions noted are these: range of concentrations, approximately three doublings, compared with Leucovorin and folic acid (FIG. 6B). In kind it is cell-based. As to the method: as §1

Data set [4] in a line: Stability in AIN-93G mouse food pellets. In kind it is physicochemical. The conditions noted are these: for at least 10 weeks; pellets stored at room temperature or −20° C. (FIGS. 9A-B). As to the method:
Folic acid and (6S)-5-formyl, 10-formyl-tetrahydrofolate were shipped to Dyets, Bethlehem, Pa. as folate sources for the formulation of AIN-93G, a defined growth diet formulated for rodents by the American Institute of Nutrition. The stability of folic acid and (6S)-5-formyl, 10-formyl-tetrahydrofolate in food pellets was determined over a 10 week period.

The nature of data set [5]: Mice fed AIN-93G diet containing the folate source (growth, adverse symptoms). The following applies: for Mouse growth: AIN-93G diet with the compound as folate source, over at least an 8-week period. In kind it is in vivo, mouse.
Data set [6] relates to HeLa cells. The data set is described as follows: Total intracellular folate measurement in HeLa cells (L. casei microbiological assay). In kind it is cell-based. As to the method:
HeLa cells were cultured in Defined αMEM (as described above) lacking folate for two doublings to deplete cellular folates, then plated into 6-well plates (1000 cells/well) and cultured for two cell doublings with Defined αMEM culture media (described above) supplemented with 200 μM methionine, 0.5 g/L pyridoxine, and either 2 nM or 20 nM (6S)-Leucovorin or novel folate derivative. Total intracellular folates were quantified using a microbiological (Lactobacillus casei, or L. casei) assay as previously described (Suh et al., “Purification and Properties of a Folate-Catabolizing Enzyme,” J. Biol. Chem. 275(45):35646-35655 (2000), which is hereby incorporated by reference in its entirety). Data is represented as mean±SEM of three biological replicates per condition.

The nature of data set [7]: Acid stability (conversion to 5,10-methenyltetrahydrofolate). In kind it is physicochemical. The conditions noted are these: conversion to 5,10-methenyltetrahydrofolate in acid; no method described.

In the case of `CN1c2c(nc(N)[nH]c2=O)NC[C@@H]1CNc1ccc(C(=O)N[C@@H](CCC(=O)O)C(=O)O)cc1` [5-methyl-tetrahydrofolate, (6S) 5-methyltetrahydrofolate, reference compound], the “Chemical stability (support of growth in the microbiological assay)” value in data set [1] was “completely destroyed”.

Turning to `Nc1nc2c(c(=O)[nH]1)N(C=O)[C@H](CN(C=O)c1ccc(C(=O)N[C@@H](CCC(=O)O)C(=O)O)cc1)CN2` [(6S)-5-formyl, 10-formyltetrahydrofolate], the “Proliferation / support of cell growth” value with HeLa cells [2] (10-formylTHF) is “support cell growth in a similar dose-response as (6S)-Leucovorin and are superior to folic acid”; in data set [3] (10-formylTHF) it was “support cell growth in a similar dose-response as (6S)-Leucovorin and are superior to folic acid”. Moreover, the “Chemical stability relative to 5-methyltetrahydrofolate” value in data set [1] is reported as “chemically more stable than 5-methyltetrahydrofolate”; in data set [1] (10-formyltetrahydrofolate) it was “increased chemical stability relative to (6S) 5-methyltetrahydrofolate”. Moreover, in data set [4], the “Stability as a component of AIN-93G rodent food” value is reported as “completely stable”. Besides, the Mouse growth result in data set [5] is “promote mouse growth”. Also, the Adverse symptoms entry in data set [5] (mice fed AIN-93G diet containing the compound for 8 weeks) is reported as “without any adverse symptoms”.

Take `CN1c2c(nc(N)[nH]c2=O)NC[C@H]1CN(C=O)c1ccc(C(=O)N[C@@H](CCC(=O)O)C(=O)O)cc1` [(6S)-5-methyl, 10-formyltetrahydrofolate]: the “Proliferation / support of cell growth” value is “support cell growth in a similar dose-response as (6S)-Leucovorin and are superior to folic acid” in the data set with HeLa cells [2] (10-formyl-THF); “support cell growth in a similar dose-response as (6S)-Leucovorin and are superior to folic acid” in data set [3] (10-formyl-THF). For the same compound, in the data set on HeLa cells [6] (HeLa cells cultured with 20 nM compound, compared with 2 nM (6S)-Leucovorin), the Total cellular folate entry is listed as “equivalent to total cellular folate in HeLa cells cultured in 2 nM (6S)-Leucovorin”. Besides, the “Total intracellular folate levels” value in the data set on HeLa cells [6] (HeLa cells, 2 nM or 20 nM folate form, (6S)-Leucovorin vs (6S)-5-methyl, 10-formyltetrahydrofolate (FIG. 7)) is recorded as “higher with (6S)-Leucovorin than with (6S)-5-methyl, 10-formyltetrahydrofolate”. In addition, the “Chemical stability relative to 5-methyltetrahydrofolate” value is recorded as “chemically more stable than 5-methyltetrahydrofolate” in data set [1] and “increased chemical stability relative to (6S) 5-methyltetrahydrofolate” in data set [1] (10-formyltetrahydrofolate).

Regarding `Nc1nc2c(c(=O)[nH]1)N(C=O)[C@@H](CNc1ccc(C(=O)N[C@@H](CCC(=O)O)C(=O)O)cc1)CN2` [(6S)-Leucovorin, (6S)-5-formyltetrahydrofolate, reference compound], the “Chemical stability (support of growth in the microbiological assay)” value in data set [1] is listed as “continued to support growth”. Also, the Stability in acid result in data set [7] is given as “unstable in acid”.

`Nc1nc2ncc(CNc3ccc(C(=O)N[C@@H](CCC(=O)O)C(=O)O)cc3)nc2c(=O)[nH]1` [folic acid, reference compound]: the “Chemical stability (support of growth in the microbiological assay)” value in data set [1] is listed as “continued to support growth”. The “Stability as a component of AIN-93G rodent food” value in data set [4] is “completely stable”. Further, the Mouse growth result in data set [5] is listed as “promote mouse growth”.
